According to paper PMC9916969 (International Journal of Molecular Sciences, 2023):

Columns and labels:
[1] = molecular target: T1, equine serum BChE (Equus caballus, UniProt P81908); test: biochemical; details: mean ± SEM, n = 3, read-out: Inhibitory activity against BChE, IC50
T1 construct: human erythrocyte AChE, equine serum BChE, and porcine liver CES were used; purchased Sigma-Aldrich; host or cells: equine serum (tissue-derived)
Description: (§1) Assessment of the esterase profile of new potential anti-AD molecules enables the estimation of both the primary pharmacological effects of the tested compounds—their inhibition of AChE and BChE—and their possible unwanted side effect—inhibition of CES, which hydrolyzes numerous ester-containing drugs. For the esterase profile evaluation, human erythrocyte AChE, equine serum BChE, and porcine liver CES were used. These sources of BChE and CES were employed because of their relatively low cost, high sequence identity to human enzymes, and the exploratory character of this work.
(§2) Chromophore absorbances were measured with a FLUOStar Optima microplate reader (BMG Labtech, Ortenberg, Germany). […] Initially, we used a single concentration of 20 µM for all compounds.

[2] = molecular target: T2, human erythrocyte AChE (Homo sapiens, UniProt P22303); test: biochemical; details: mean ± SEM, n = 3, read-out: Inhibitory activity against AChE, IC50
T2 construct: human erythrocyte AChE, equine serum BChE, and porcine liver CES were used; purchased Sigma-Aldrich; host or cells: human erythrocytes (tissue-derived)
T2 sequence (P22303 32-617 isoform P22303-2 limits assumed): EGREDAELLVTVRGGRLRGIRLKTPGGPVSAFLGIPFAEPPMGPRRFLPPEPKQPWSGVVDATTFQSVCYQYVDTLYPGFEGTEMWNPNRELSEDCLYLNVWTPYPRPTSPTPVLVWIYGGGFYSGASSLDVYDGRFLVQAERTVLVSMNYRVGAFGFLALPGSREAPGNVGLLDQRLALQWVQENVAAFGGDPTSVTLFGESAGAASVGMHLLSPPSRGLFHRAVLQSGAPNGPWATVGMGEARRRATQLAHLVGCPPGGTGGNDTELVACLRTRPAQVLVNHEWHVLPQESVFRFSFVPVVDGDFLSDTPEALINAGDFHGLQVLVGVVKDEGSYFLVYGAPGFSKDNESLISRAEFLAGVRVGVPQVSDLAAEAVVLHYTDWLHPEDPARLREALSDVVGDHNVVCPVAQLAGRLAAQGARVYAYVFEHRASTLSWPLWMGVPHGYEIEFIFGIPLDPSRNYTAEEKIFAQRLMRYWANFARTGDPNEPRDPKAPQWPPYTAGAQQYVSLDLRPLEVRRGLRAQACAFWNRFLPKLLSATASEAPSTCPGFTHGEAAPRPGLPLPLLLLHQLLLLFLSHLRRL
Description: as §1, §2

[3] = system: porcine liver CES; test: In vitro CES inhibition (4-NPA substrate); type: biochemical; details: compound 20 µM, n.a. = not active
Description: as §1, §2

[4] = molecular target: T3, AChE (Homo sapiens, UniProt P22303); test: Kinetic study of AChE inhibition (Lineweaver-Burk); type: biochemical
T3 construct: human erythrocyte AChE, equine serum BChE, and porcine liver CES were used; purchased Sigma-Aldrich; host or cells: human erythrocytes (tissue-derived)
T3 sequence (P22303 32-617 isoform P22303-2 limits assumed): as above
Protocol: (§3) We assessed the mechanisms of AChE and BChE inhibition by performing a thorough analysis of enzyme kinetics. After a 5 min incubation at 25 °C (for temperature equilibration) with three increasing concentrations of inhibitor and six decreasing substrate concentrations, the residual enzyme activity was measured as described above for enzymatic assays.

[5] = molecular target: T4, eqBChE (Equus caballus, UniProt P81908); test: Kinetic study of BChE inhibition (Lineweaver-Burk); type: biochemical
T4 construct: human erythrocyte AChE, equine serum BChE, and porcine liver CES were used; purchased Sigma-Aldrich; host or cells: equine serum (tissue-derived)
T4 sequence (P81908 whole entry): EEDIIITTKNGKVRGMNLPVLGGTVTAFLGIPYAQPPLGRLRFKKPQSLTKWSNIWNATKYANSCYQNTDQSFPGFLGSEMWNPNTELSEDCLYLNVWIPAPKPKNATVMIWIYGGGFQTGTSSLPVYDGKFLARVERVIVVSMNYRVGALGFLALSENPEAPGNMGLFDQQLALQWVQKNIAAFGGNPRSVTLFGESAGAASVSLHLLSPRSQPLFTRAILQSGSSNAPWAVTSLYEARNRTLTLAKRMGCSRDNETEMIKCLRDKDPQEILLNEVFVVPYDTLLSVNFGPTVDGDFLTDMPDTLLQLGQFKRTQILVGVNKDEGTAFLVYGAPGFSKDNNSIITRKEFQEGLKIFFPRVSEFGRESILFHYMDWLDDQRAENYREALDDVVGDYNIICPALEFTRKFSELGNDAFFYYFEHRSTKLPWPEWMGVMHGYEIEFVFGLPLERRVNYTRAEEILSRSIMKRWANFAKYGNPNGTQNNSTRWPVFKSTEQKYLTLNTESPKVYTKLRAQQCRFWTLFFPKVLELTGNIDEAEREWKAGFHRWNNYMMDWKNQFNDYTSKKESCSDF
Protocol: Similar results were obtained for other tested compounds (Figures S61 and S62). The obtained values of inhibition constants (Ki = competitive component and αKi = non-competitive component) are shown in Table 2.
as §3

[6] = molecular target: T5, EeAChE PAS (Electrophorus electricus, UniProt O42275); type: binding; details: compound 20 µM; EeAChE 7 µM; propidium iodide 8 µM
T5 construct: The enzyme was electric eel AChE (EeAChE type VI-S, lyophilized powder, Sigma-Aldrich); purchased Sigma-Aldrich type VI-S; host or cells: electric eel (tissue-derived)
T5 sequence (O42275 24-633): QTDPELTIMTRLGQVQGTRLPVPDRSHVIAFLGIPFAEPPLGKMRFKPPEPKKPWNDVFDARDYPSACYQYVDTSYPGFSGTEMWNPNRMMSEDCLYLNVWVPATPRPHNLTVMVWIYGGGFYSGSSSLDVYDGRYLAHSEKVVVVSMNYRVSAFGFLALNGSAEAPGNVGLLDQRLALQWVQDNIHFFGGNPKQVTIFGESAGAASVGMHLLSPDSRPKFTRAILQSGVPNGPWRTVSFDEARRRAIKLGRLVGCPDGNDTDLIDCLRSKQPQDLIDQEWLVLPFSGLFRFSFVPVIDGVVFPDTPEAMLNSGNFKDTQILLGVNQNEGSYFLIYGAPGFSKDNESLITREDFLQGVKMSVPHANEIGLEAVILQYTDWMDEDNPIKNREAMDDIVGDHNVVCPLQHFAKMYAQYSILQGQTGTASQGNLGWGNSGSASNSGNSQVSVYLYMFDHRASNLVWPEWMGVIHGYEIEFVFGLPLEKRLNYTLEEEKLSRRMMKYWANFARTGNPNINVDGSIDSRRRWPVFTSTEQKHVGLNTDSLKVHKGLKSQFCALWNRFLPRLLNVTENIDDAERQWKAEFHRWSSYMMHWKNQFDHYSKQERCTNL
Description: This method is widely used as a screening approach to assess the potential ability of compounds to block AChE-induced β-amyloid aggregation. This is because when the compounds bind to the AChE PAS, they prevent the binding of β-amyloid, thereby inhibiting its aggregation.
The enzyme was electric eel AChE (EeAChE type VI-S, lyophilized powder, Sigma-Aldrich). We selected this source of AChE for consistency with our other reports and because of the purity, specific activity, and lower cost compared to human AChE.
Propidium iodide (final concentration 8 μM) was then added for a further 15 min incubation, and the fluorescence spectrum was taken (530 nm excitation and 600 nm emission) using a FLUOStar Optima microplate reader. The same concentration of propidium iodide in the Tris buffer was used as the blank. Triplicate determinations were recorded and the results were calculated via the following equation:% Displacement = 100 − (IFAChE+ Propidium + inhibitor/IFAChE + Propidium) × 100, where IFAChE + Propidium = fluorescence intensity of propidium iodide associated with AChE in the absence of the test compound (taken as 100%), and IFAChE + Propidium + inhibitor = fluorescence intensity of propidium iodide associated with AChE in the presence of the test compound.

[7] = molecular target: β-amyloid (1–42) (Aβ42) (Homo sapiens, UniProt P05067); test: Inhibition of Aβ42 self-aggregation (thioflavin T); type: biochemical; details: Aβ42 50 µM; compound 100 µM; 24 h, 37 °C; thioflavin T; read-out: Inhibition of Aβ42 Self-Aggregation
β-amyloid (1–42) (Aβ42), sequence (P05067 672-713 limits assumed): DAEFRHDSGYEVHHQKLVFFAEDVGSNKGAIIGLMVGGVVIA
Protocol: The inhibitory activity of tested hybrids against the self-aggregation of Aβ42 was determined in vitro using the thioflavin T (ThT) fluorimetric assay. According to [84], the ThT test is ideal for preliminary screening of inhibitors of Aβ42 self-aggregation, as it enables the quantitative testing of large numbers of compounds within a relatively short time.
The influence of the inhibitory effect of the test compounds toward Aβ42 self-aggregation was determined using the thioflavin T (ThT) fluorescence method with minor modifications. This assay is based on a specific interaction between the fluorescent dye thioflavin T that binds to the β-sheets of assembled amyloid fibrils leading to a significant increase in fluorescence signal. Therefore, the decrease in ThT fluorescence correlates with the ability of the studied compounds to inhibit the formation of amyloid aggregates.
One mg of lyophilized HFIP-pretreated Aβ42 from BACHEM (Bubendorf, Switzerland) was dissolved in DMSO to obtain a stable initial solution ([Aβ42] = 500 μM); then it was aliquoted and stored at −20 °C.
For the measurement of Aβ42 self-aggregation and amyloid fibril inhibition studies by the tested compounds, aliquots of 500 μM Aβ42 stock solution were diluted in 215 mM Na-phosphate buffer pH = 8.0 to a final concentration of 50 μM Aβ42. Then the samples were incubated for 24 h at 37 °C without stirring in the absence (base level of Aβ42 self-aggregation, control) or presence of the test compounds. Myricetin and propidium iodide were used as reference compounds (positive controls). All compounds were used in a concentration of 100 µM. To quantify Aβ42 fibril formation, after incubation, 5 μM ThT in 50 mM glycine-NaOH buffer pH 8.5 was added to the solutions to a final concentration of 4 μM ThT and the fluorescence was measured at 440 nm (excitation) and 485 nm (emission). Analyses were performed with a FLUOStar Optima microplate reader (LabTech, Ortenberg, Germany). The blanks consisted of 215 mM Na-phosphate buffer, pH = 8.0, 20% (v/v) DMSO or test compounds, respectively. Each assay was run in triplicate.

[8] = FRAP assay; details: Trolox equivalents; 60 min, 37 °C; n.a. = not active
Protocol: The Ferric Reducing Antioxidant Power (FRAP) test involves reduction of the ferric 2,4,6-tripyridyl-s-triazine complex [Fe(TPTZ)2]^3+ to an intense-blue ferrous complex [Fe(TPTZ)2]^2+ [92], as previously reported. Results are given as Trolox Equivalents (TE).
The FRAP (ferric reducing antioxidant power) assay proposed by Benzie and Strain [92] was modified to be performed in 96-well microplates as described in detail in [53]. The FRAP reagent contained 2.5 mL of 10 mM TPTZ (2,4,6-tris(2-pyridyl)-s-triazine, Sigma-Aldrich) solution in 40 mM HCl, 2.5 mL of 20 mM FeCl3 (Sigma-Aldrich) in distilled water and 25 mL of 0.3 M acetate buffer (pH 3.6). Aliquots of 10 µL of the test compound dissolved in DMSO (0.5 mM) were placed in quadruplicate. Absorbance was measured at a wavelength of 593 nm after 60 min incubation at 37 °C. In each case, Trolox was used as a reference compound to obtain the standard curve. The AO activity was calculated with respect to the activity of Trolox and expressed as Trolox equivalents (TE)—the values calculated as the ratio of the concentrations of Trolox and the test compound resulting in the same effect on ferric reducing activity.

[9] = Metal chelation by UV-Vis spectroscopy, Cu2+; details: ethanol, 25 °C; compound and metal 40 μM; difference spectra; two bands per compound
[10] = ABTS radical cation scavenging assay; set-up: key to ABTS^•+ Scavenging Activity, TEAC: TEAC: ratio of compound slope to Trolox slope (Trolox equivalents); details: 1 h incubation
Protocol: In the ABTS assay, the dark-green ABTS cation-radical (ABTS^•+) is quenched by interaction with AOs. The consequent decrease in absorbance is followed spectrophotometrically per the previously described method.
Radical scavenging activity of the compounds was assessed using the ABTS radical cation (ABTS^•+) decolorization assay with some modifications. ABTS (2,2′-azinobis-(3-ethylbenzothiazoline-6-sulfonic acid) was purchased from Tokyo Chemical Industry Co., Ltd. (Tokyo, Japan); potassium persulfate (dipotassium peroxodisulfate), Trolox (6-hydroxy-2,5,7,8-tetramethylchroman-2-carboxylic acid), and HPLC-grade ethanol and DMSO were obtained from Sigma-Aldrich (Saint Louis, MO, USA). Aqueous solutions were prepared using deionized water. All tested compounds were dissolved in DMSO.
The solution of cation radical ABTS^•+ was produced by incubation of an aqueous solution of 7 mM ABTS and 2.45 mM potassium persulfate solution in equal quantities for 12–16 h at room temperature in the dark. Radical scavenging capacity of the compounds was analyzed by mixing 10 μL of compound with 240 μL of ABTS^•+ working solution in ethanol (100 μM final concentration). The reaction was monitored for an hour at 30 °C with an interval of 10 min. Data are given for 1 h of incubation of compounds with ABTS^•+. The reduction in absorbance was measured spectrophotometrically at 734 nm using an xMark microplate UV/VIS spectrophotometer (Bio-Rad, Hercules, CA, USA). Ethanol blanks were run in each assay. Values were obtained from five replicates of each sample and three independent experiments.
The standard AO Trolox was used as a reference compound. AO capacity as Trolox equivalent (TEAC) values was determined as the ratio between the slopes obtained from the linear correlation of the ABTS radical absorbance with the concentrations of tested compounds and Trolox. Ascorbic acid was used as a positive control. […]. The compounds were tested in the concentration range of 0.5–100 µM.

[11] = mixed-type inhibition, mean ± SEM

T1 sequence (P81908 whole entry): as the sequence (P81908 whole entry) above

| Compound | IC50 [1] [nM] | IC50 [2] [nM] | Inhibitory activity against CES, inhibition at 20 µM [3] [%] | αKi (non-competitive inhibition constant), AChE [4, 11] [µM] | Ki ([4]; read-out: Ki (competitive inhibition constant), AChE) [nM] | αKi (non-competitive inhibition constant), eqBChE [5, 11] [µM] | Ki ([5]; read-out: Ki (competitive inhibition constant), eqBChE) [nM] | Propidium Displacement from EeAChE PAS [6] [%] | inhibition at 100 µM [7] [%] | FRAP, TE [8] | Shift of Absorbance, Cu(II) [9] [nm] | IC50 ([10]; 50% reduction of ABTS radical cation) [nM] | ABTS^•+ Scavenging Activity, TEAC ([10]; Trolox equivalent, n.a. = not active) |
| --- | --- | --- | --- | --- | --- | --- | --- | --- | --- | --- | --- | --- | --- |
| COc1cc(F)c(F)cc1C(=O)NCCCCCCCCNc1c2c(nc3ccccc13)CCCC2 [8c] | 31.7 ± 2.4 | 142 ± 11 | 19.8 ± 3.1 | 0.0998 ± 0.0058 | 53.6 ± 2.5 | 0.0187 ± 0.0013 | 17.7 ± 0.7 | 15.1 ± 1.2 | 54.1 ± 4.3 | 0.02 | – | – | – |
| COc1ccccc1C(=O)NCCCCCCNc1c2c(nc3ccccc13)CCCC2 [6b] | 37.7 ± 3.1 | 646 ± 41 | 8.0 ± 1.3 | – | – | – | – | 12.5 ± 0.8 | 30.8 ± 2.1 | 0.02 | 254 | – | – |
| Oc1ccccc1/C=N/CCCCCCNc1c2c(nc3ccccc13)CCCC2 [10b] | 35.4 ± 1.7 | 103 ± 6 | 17.9 ± 0.8 | – | – | – | – | 18.2 ± 1.4 | 67.9 ± 5.4 | 0.03 | 255 | 31800 ± 1600 | 0.47 ± 0.04 |
